In general, melting point refers to the temperature, or range, at which the solid turns liquid.

Structures are written as SMILES.

The subject of one data set is another carcinoma which does not express the EGF receptor. The note with it: athymic nude mice; background statement; cited from earlier work.
On to `O=CN/C=C/c1cc(O)ccc1O` [erbstatin], for which the “growth of carcinoma which does not express the EGF receptor” value is “without effect on the growth”.

The next data set concerns transplanted human mammary carcinoma which expresses epidermal growth factor receptor tyrosine kinase (EGFR). To be noted: athymic nude mice; background statement; cited from earlier work.
For `O=CN/C=C/c1cc(O)ccc1O` [erbstatin], the “growth of transplanted human mammary carcinoma expressing EGFR” value is “selectively attenuates the growth”.

System in a further data set: not given
Conditions: not given
Regarding `C#Cc1cccc(Nc2ncnc3cc(OCCOC)c(OCCSCC(=O)O)cc23)c1.N`, the melting point is 98 to 113 °C (dec.).

For `C#Cc1cc(Nc2ncnc3cc(OCCOC)c(OCCOC)cc23)ccc1F.Cl`, the melting point was 170 to 190 °C (dec.).

On to `C#Cc1ccc(C)c(Nc2ncnc3cc(OCCOC)c(OCCOC)cc23)c1.Cl`, for which the melting point was 170 to 185 °C (dec.).

As to `C#Cc1cccc(Nc2ncnc3cc(OCCCl)c(OCCCl)cc23)c1.Cl`, the melting point was 230 to 240 °C (dec.).

As to `C#Cc1cccc(Nc2ncnc3cc(OCCOC)c(OCCCl)cc23)c1.Cl`, the melting point was 215 to 225 °C (dec.).

Consider `C#Cc1cccc(Nc2ncnc3cc(OCCOC(C)=O)c(OCCOC(C)=O)cc23)c1`, for which the melting point lay within 137 to 138 °C.

As to `C#Cc1cccc(Nc2ncnc3cc(OCCO)c(OCCO)cc23)c1.Cl`, the melting point was 215 to 218 °C (dec.).

With `C#Cc1cccc(Nc2ncnc3cc(OCCOC)c(OCCOC(C)=O)cc23)c1`, the melting point was 84 to 87 °C.

For the compound `C#Cc1cccc(Nc2ncnc3cc(OCCCl)c(OCCOC)cc23)c1.Cl`, the melting point is 225 to 235 °C (dec.).

Take `C#Cc1cccc(Nc2ncnc3cc(OCCOC(C)=O)c(OCCOC)cc23)c1`: the melting point was in the range of 134 to 135 °C.

With `C#Cc1cccc(Nc2ncnc3cc(OCCN4CCN(C)CC4)c(OCCOC)cc23)c1.Cl.Cl`, the melting point was 130 to 142 °C (dec.).

With `C#Cc1cccc(Nc2ncnc3cc(OCCn4ccnc4)c(OCCOC)cc23)c1.Cl.Cl`, the melting point is 220 to 227 °C (dec.).

Turning to `C#Cc1cccc(Nc2ncnc3cc(OCCOC)c(OCCn4ccnc4)cc23)c1.Cl.Cl`, the melting point was 85 to 100 °C (dec.).

For the compound `C#Cc1cccc(Nc2ncnc3cc(OCCOC)c(OCCN4CCOCC4)cc23)c1.Cl.Cl`, the melting point was 115 to 130 °C (dec.).

`C#Cc1cccc(Nc2ncnc3ccc(C)cc23)c1.Cl` came in with a melting point of 256 to 257 °C.

On to `C#Cc1cccc(Nc2ncnc3cc(OCCSC(C)C(=O)O)c(OCCOC)cc23)c1.N` (stereo not shown), for which the melting point was 95 to 103 °C (dec.).

Consider `C#Cc1cccc(Nc2ncnc3cc(OCCOC)c(O)cc23)c1.Cl`, for which the melting point was 135 to 150 °C (dec.).

On to `C#Cc1cccc(Nc2ncnc3cc(OCCn4ccc(=O)cc4)c(OCCOC)cc23)c1.Cl`, for which the melting point was 240 to 248 °C (dec.).

Regarding `C#Cc1cccc(Nc2ncnc3cc(OCCOC)c(OCCn4ccc(=O)cc4)cc23)c1.Cl`, the melting point is 155 to 168 °C (dec.).

Consider `C#Cc1cccc(Nc2ncnc3cc(OCCCC)c(OCCCC)cc23)c1.Cl`, for which the melting point fell in the range of 247 to 248 °C.
